One data set relates to OCT2 and MATE1. The data set can be described thus: Bidirectional transcellular flux of ASP+ in OCT2/MATE1 double-transfected MDCK cells. The data set is classed as cell-based, human. Particulars: human, ASP+ 25 μM, read-out: B-to-A/A-to-B efflux ratio. Here is the method: (§1) Figure 4 Transcellular Flux of ASP^+ in Control and OCT2/MATE1-Transfected MDCK cells. (A). Protein expression of OCT2 (~63 kDa,) and MATE1 (~54 kDa) in vector control MDCK cells (lanes 1–2) and OCT2/MATE1 double transfected (lanes 3–4). (B). Cells were incubated with ASP^+ (25 μM) in either apical or basolateral media for 120 min and fluorescence in apical or basolateral media was quantified (A-to-B: apical-to-basolateral; B-to-A: basolateral-to-apical). ^† p < 0.05 compared to A-to-B. ^‡ p < 0.05 compared to vector. (C). Cells were incubated with ASP^+ (25 μM) in basolateral media and positive control inhibitors in apical and basolateral media for 120 min. Fluorescence was measured in the apical chamber. (D). Intracellular fluorescence was quantified and normalized to protein concentration. Data are expressed as mean ± SE (n = 3). * p < 0.05 compared to no inhibitor. CIM–Cimetidine; PYR–Pyrimethamine; OLA–Olanzapine.
(§2) Cells were incubated with 5-HT3 antagonists in the apical chamber in HBSS pH 6.0 and 5-HT3 antagonists with ASP^+ (25 μM) in the basolateral chamber in HBSS pH 7.4 and incubated at 37 °C for 120 min. […]

In another data set the test system is human OCT2 and MATE1. The data set is described as above. The data set is classed as cell-based. The note with it: ASP+ 25 μM, 120 min. Here is the method: as §1, §2
Data set [1] deals with empty vector (EV) HEK293 cells. Briefly: Concentration-dependent uptake of ASP+ in empty vector HEK293 cells. The data set is classed as cell-based, human. The note with it: EV HEK293, 0–100 μM, 1 min. Here is the method:
Figure 2 Time and Concentration-Dependent Accumulation of ASP^+ in HEK293 Cells Overexpressing OCT2 or MATE1. HEK cells expressing empty vector (EV), OCT2, or MATE1 were incubated for different time periods (0.5–20 min, 10 μM ASP^+, 37 °C) to evaluate time-dependent uptake (A) or with increasing concentrations of ASP^+ (0–100 μM, 1 min 37 °C) for concentration-dependent uptake (B) on a shaker. Specific transport uptake is shown in dashed lines. Intracellular fluorescence was quantified and normalized to protein concentration. Data are presented as mean ± SE (n = 3).
OCT2- and MATE1-overexpressing HEK293 cells were seeded in clear poly-^D-lysine-coated 24-well plates (Fisher Scientific, Hanover Park, IL, USA) and grown for 24 h until approximately 90% confluent. […]
GraphPad Prism v6 (GraphPad Software, La Jolla, CA, USA) was used for statistical analysis. Km and Vmax were calculated using nonlinear regression (Michaelis–Menten enzyme kinetics equation, (Y = Vmax × X/(Km + X), fit for least squares). Data with two variables were analyzed using a two-way ANOVA followed by a one-way ANOVA and/or Dunnett’s post-hoc test for multiple comparisons. IC50 values were calculated via a nonlinear regression to fit least squares. Differences were considered statistically significant at p < 0.05.

A short description of data set [2]: Bidirectional transcellular flux of ASP+ in control MDCK cells. The data set is classed as cell-based, canine. Particulars: dog, ASP+ 25 μM, read-out: B-to-A transport relative to A-to-B transport. Here is the method: as §1, §2
Another data set addresses T1, MATE1 (Homo sapiens, UniProt Q96FL8).
T1 construct: expressed in transfected cells; gift of Dr. Kathy Giacomini, UCSF
T1 sequence (Q96FL8 1-570): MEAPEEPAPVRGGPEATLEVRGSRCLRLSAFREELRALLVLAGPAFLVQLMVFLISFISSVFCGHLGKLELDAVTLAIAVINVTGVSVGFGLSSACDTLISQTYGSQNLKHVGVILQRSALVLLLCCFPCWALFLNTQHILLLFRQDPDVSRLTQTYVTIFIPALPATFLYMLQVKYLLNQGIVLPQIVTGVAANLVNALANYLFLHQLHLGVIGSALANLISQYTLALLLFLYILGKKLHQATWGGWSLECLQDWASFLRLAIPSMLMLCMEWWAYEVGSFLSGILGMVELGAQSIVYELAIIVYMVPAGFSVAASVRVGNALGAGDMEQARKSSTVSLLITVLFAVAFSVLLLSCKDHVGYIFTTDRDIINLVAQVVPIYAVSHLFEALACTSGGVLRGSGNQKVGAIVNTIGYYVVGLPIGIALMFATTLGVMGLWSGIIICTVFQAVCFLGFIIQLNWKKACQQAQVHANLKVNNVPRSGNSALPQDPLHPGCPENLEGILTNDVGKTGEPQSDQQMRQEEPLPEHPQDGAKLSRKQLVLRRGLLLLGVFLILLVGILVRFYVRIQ
The data set can be described thus: Concentration-dependent uptake of ASP+ in MATE1-expressing HEK293 cells. The data set is classed as cell-based. Here is the method: After washing once with prewarmed Hank’s Buffered Saline Solution (HBSS), cells were preincubated for 30 min at 37 °C with various 5-HT3 antagonists for OCT2 cells or in a 30 mM NH4Cl solution in HBSS at pH 6.5 for MATE1 cells for intracellular acidification. […] […] […] Media was removed and washed four times with ice-cold HBSS. Cells were lysed with 1% Triton X-100. […] Experiments were repeated three separate times, with three to four replicates in each experiment.
GraphPad Prism v6 (GraphPad Software, La Jolla, CA, USA) was used for statistical analysis.

The subject of a further data set is MDCK monolayers. Briefly: Passive permeability of lucifer yellow across MDCK monolayers. It counts as in vitro ADME, canine. The note with it: lucifer yellow 20 μM, B-to-A, 1 h. Here is the method: Both MDCK cell lines were seeded on 0.4 μm transwell inserts (VWR, Radnor, PA, USA) at a density of 2 × 10^5 cells/cm^2. […] The integrity of MDCK monolayers was verified by measuring transepithelial electrical resistance (TEER) >150 Ω*cm^2 using an epithelial voltohmmeter, EVOM^2 (World Precision Instruments, Sarasota, FL). Proper formation of tight junctions was also verified by measurement of passive permeability of lucifer yellow in the basolateral-to-apical (B-to-A) direction. Lucifer yellow (20 μM) was applied to the basolateral chamber for 1 h, and media were collected from the apical chamber.

Broadly, the Km is the substrate concentration at which the rate is half of its maximum. Regarding `CN(C)c1ccc(C=Cc2cc[n+](C)cc2)cc1.[I-]` [ASP^+, 4-(4-(Dimethylamino)styryl)-N-methylpyridinium iodide], the efflux ratio at 120 min, 25 μM in the data set on OCT2 and MATE1 came to 2.7; in data set [2] (120 min), 1.7. Moreover, the “B-to-A transport relative to A-to-B transport” value in the data set with human OCT2 and MATE1 was “up to 2.8 fold”. In addition, in data set [1], the Km is 37.3 µM. Also, the “Vmax of ASP+ uptake” value in data set [1] is recorded as 1.9 nmol/mg/min; at MATE1 (MATE1-expressing HEK293, 0–100 μM, 1 min), 3.4 nmol/mg/min. The efflux ratio at 90 min, 25 μM in data set [2] (90 min) worked out at 1.3. Moreover, the Km at 1 min at MATE1 (human, HEK293 cells overexpressing MATE1, pH 7.4, MATE1-expressing HEK293, 0–100 μM) turned out to be 8.2 µM.
Consider Lucifer yellow, for which the “Average passive permeability (Papp)” value in the data set on MDCK monolayers was 0.7 ×10⁻⁶ cm/s.

For the origin of these results see publication PMC8234231, “In Vitro Inhibition of Renal OCT2 and MATE1 Secretion by Antiemetic Drugs” (International Journal of Molecular Sciences, 2021).
